Measurements as given in patent publication EP0726261A1, “Herbidical 1,2,4 thiadiazoles” (American Cyanamid Company, priority 1995, dated 1996).

How the values were obtained:
Format in all cases: in vivo
Hordeum vulgare [1] = experiment: Preemergence herbicidal activity (Example 67); parameters: herbicide rating, HORVW: scale not given here; conditions: pre, 800 g/ha
Method: (§1) Herbicidal evaluation of compounds of the invention is conducted on the following plant species:
(§2) The soil is a prepared horticultural substrate containing 30% peat, 20% volcanic clay, 30% bark residues and 20% polyamide/styromull in a 1:3 mixture with loamy sand. Test solutions are prepared by dissolving the test compound in acetone containing 0.5% of an alkylphenol/ethylene oxide condensate under the trademark, TRITON® X-155, and diluting with water as needed. The test solutions are applied as a spray to the 3-6 week old seedling plants at dose rates corresponding to 800g/ha in a volume equivalent to 400 L/ha. A pneumatic spraying device employing a Teejet nozzle SS 8002E operating at 3 bar is used for a predetermined time. After spraying, the treated plants are placed on greenhouse benches and cared for in a manner commensurate with conventional greenhouse practice. After 10-21 days, the treated plants are evaluated and rated according to the rating system provided below.
(§3) The soil surface is then sprayed with test solutions as described in the postemergence evaluation hereinabove. After spraying, the treated cups are placed on greenhouse benches and cared for in the manner commensurate with conventional greenhouse practice. About 1-3 weeks after treatment the cups are evaluated and rated according to the rating system provided hereinabove.

Alopecurus myosuroides [2] = experiment: Preemergence herbicidal activity (Example 67); parameters: herbicide rating, ALOMY: scale not given here; conditions: pre, 800 g/ha
Method: as §1, §2, §3

Triticum aestivum [3] = experiment: Preemergence herbicidal activity (Example 67); parameters: herbicide rating, TRZAW: scale not given here; conditions: pre, 800 g/ha
Method: as §1, §2, §3

Setaria viridis [4] = experiment: Preemergence herbicidal activity (Example 67); parameters: herbicide rating, SETVI: scale not given here; conditions: pre, 800 g/ha
Method: as §1, §2, §3

Helianthus annuus [5] = experiment: Postemergence herbicidal activity (Example 67); conditions: pos, 800 g/ha
Method: as §1, §2

Alopecurus myosuroides [6] = experiment: Postemergence herbicidal activity (Example 67); conditions: pos, 800 g/ha
Method: as §1, §2

Hordeum vulgare [7] = experiment: Postemergence herbicidal activity (Example 67); conditions: pos, 800 g/ha
Method: as §1, §2

Amaranthus retroflexus [8] = experiment: Postemergence herbicidal activity (Example 67); conditions: pos, 800 g/ha
Method: as §1, §2

Galium aparine [9] = experiment: Postemergence herbicidal activity (Example 67); conditions: pos, 800 g/ha
Method: as §1, §2

Triticum aestivum [10] = experiment: Postemergence herbicidal activity (Example 67); conditions: pos, 800 g/ha
Method: as §1, §2

Chenopodium album [11] = experiment: Postemergence herbicidal activity (Example 67); conditions: pos, 800 g/ha
Method: as §1, §2

Veronica persica [12] = experiment: Postemergence herbicidal activity (Example 67); conditions: pos, 800 g/ha
Method: as §1, §2

Ipomoea hederacea [13] = experiment: Postemergence herbicidal activity (Example 67); conditions: pos, 800 g/ha
Method: as §1, §2

Setaria viridis [14] = experiment: Postemergence herbicidal activity (Example 67); conditions: pos, 800 g/ha
Method: as §1, §2

Zea mays [15] = experiment: Postemergence herbicidal activity (Example 67); conditions: pos, 800 g/ha
Method: as §1, §2

Abutilon theophrasti [16] = experiment: Postemergence herbicidal activity (Example 67); conditions: pos, 800 g/ha
Method: as §1, §2

Helianthus annuus [17] = experiment: Preemergence herbicidal activity (Example 67); conditions: pre, 800 g/ha
Method: as §1, §2, §3

Amaranthus retroflexus [18] = experiment: Preemergence herbicidal activity (Example 67); conditions: pre, 800 g/ha
Method: as §1, §2, §3

Galium aparine [19] = experiment: Preemergence herbicidal activity (Example 67); conditions: pre, 800 g/ha
Method: as §1, §2, §3

Chenopodium album [20] = experiment: Preemergence herbicidal activity (Example 67); conditions: pre, 800 g/ha
Method: as §1, §2, §3

Veronica persica [21] = experiment: Preemergence herbicidal activity (Example 67); conditions: pre, 800 g/ha
Method: as §1, §2, §3

Ipomoea hederacea [22] = experiment: Preemergence herbicidal activity (Example 67); conditions: pre, 800 g/ha
Method: as §1, §2, §3

Zea mays [23] = experiment: Preemergence herbicidal activity (Example 67); conditions: pre, 800 g/ha
Method: as §1, §2, §3

Abutilon theophrasti [24] = experiment: Preemergence herbicidal activity (Example 67); conditions: pre, 800 g/ha
Method: as §1, §2, §3

[25] = rated about 1-3 weeks after treatment

SMILES: COCCc1nsc(C(=O)NC(C)c2cccs2)n1 (racemic) [Example 33]
- herbicide rating, HORVW (Hordeum vulgare [1]; [25]): 0
- herbicide rating, ALOMY (Alopecurus myosuroides [2]; [25]): 0
- herbicide rating, TRZAW (Triticum aestivum [3]; [25]): 0
- herbicide rating, SETVI (Setaria viridis [4]; [25]): 0
- herbicide rating, HELAN (Helianthus annuus [5]; rated after 10-21 days): 4 (30-44%)
- herbicide rating, ALOMY (Alopecurus myosuroides [6]; rated after 10-21 days): 3 (16-29%)
- herbicide rating, HORVW (Hordeum vulgare [7]; rated after 10-21 days): 3 (16-29%)
- herbicide rating, AMARE (Amaranthus retroflexus [8]; rated after 10-21 days): 0
- herbicide rating, GALAP (Galium aparine [9]; rated after 10-21 days): 3 (16-29%)
- herbicide rating, TRZAW (Triticum aestivum [10]; rated after 10-21 days): 2 (6-15%)
- herbicide rating, CHEAL (Chenopodium album [11]; rated after 10-21 days): 2 (6-15%)
- herbicide rating, VERPE (Veronica persica [12]; rated after 10-21 days): 0
- herbicide rating, IPOHE (Ipomoea hederacea [13]; rated after 10-21 days): 4 (30-44%)
- herbicide rating, SETVI (Setaria viridis [14]; rated after 10-21 days): 6 (65-79%)
- herbicide rating, ZEAMX (Zea mays [15]; rated after 10-21 days): 0
- herbicide rating, ABUTH (Abutilon theophrasti [16]; rated after 10-21 days): 2 (6-15%)
- herbicide rating, HELAN (Helianthus annuus [17]; [25]): 0
- herbicide rating, AMARE (Amaranthus retroflexus [18]; [25]): 0
- herbicide rating, GALAP (Galium aparine [19]; [25]): 0
- herbicide rating, CHEAL (Chenopodium album [20]; [25]): 2 (6-15%)
- herbicide rating, VERPE (Veronica persica [21]; [25]): 5 (45-64%)
- herbicide rating, IPOHE (Ipomoea hederacea [22]; [25]): 0
- herbicide rating, ZEAMX (Zea mays [23]; [25]): 0
- herbicide rating, ABUTH (Abutilon theophrasti [24]; [25]): 0

SMILES: CC(NC(=O)c1nc(-c2c(F)cccc2F)ns1)c1cccs1 (racemic) [Example 58, (R/S)-3-(2,6-Difluorophenyl)-[1,2,4]thiadiazole-5-carboxylic acid, [1-(2-thienyl)ethyl]amide]
- HOR VW rating (Hordeum vulgare [1]): 0
- TRZ AW rating (Triticum aestivum [3]): 0
- SET VI rating (Setaria viridis [4]): 0
- HEL AN rating (Helianthus annuus [5]): 9 (100% effect)
- HOR VW rating (Hordeum vulgare [7]): 3 (16-29%)
- AMA RE rating (Amaranthus retroflexus [8]): 7 (80-90%)
- GAL AP rating (Galium aparine [9]): 6 (65-79%)
- TRZ AW rating (Triticum aestivum [10]): 2 (6-15%)
- CHE AL rating (Chenopodium album [11]): 6 (65-79%)
- VER PE rating (Veronica persica [12]): 4 (30-44%)
- SET VI rating (Setaria viridis [14]): 2 (6-15%)
- ZEA MX rating (Zea mays [15]): 0
- HEL AN rating (Helianthus annuus [17]): 0
- AMA RE rating (Amaranthus retroflexus [18]): 0
- GAL AP rating (Galium aparine [19]): 0
- CHE AL rating (Chenopodium album [20]): 0
- VER PE rating (Veronica persica [21]): 0
- ZEA MX rating (Zea mays [23]): 0

SMILES: COc1ccc(-c2nsc(C(=O)NC(C)c3ccsc3)n2)cc1 (racemic) [Example 61]
- HOR VW rating (Hordeum vulgare [1]): 0
- ALO MY rating (Alopecurus myosuroides [2]): 0
- TRZ AW rating (Triticum aestivum [3]): 0
- SET VI rating (Setaria viridis [4]): 0
- HEL AN rating (Helianthus annuus [5]): 2 (6-15%)
- ALO MY rating (Alopecurus myosuroides [6]): 1 (1-5%)
- HOR VW rating (Hordeum vulgare [7]): 0
- AMA RE rating (Amaranthus retroflexus [8]): 0
- GAL AP rating (Galium aparine [9]): 0
- TRZ AW rating (Triticum aestivum [10]): 0
- VER PE rating (Veronica persica [12]): 0
- IPO HE rating (Ipomoea hederacea [13]): 0
- SET VI rating (Setaria viridis [14]): 0
- ZEA MX rating (Zea mays [15]): 0
- ABU TH rating (Abutilon theophrasti [16]): 0
- HEL AN rating (Helianthus annuus [17]): 0
- AMA RE rating (Amaranthus retroflexus [18]): 0
- GAL AP rating (Galium aparine [19]): 0
- VER PE rating (Veronica persica [21]): 0
- IPO HE rating (Ipomoea hederacea [22]): 0
- ZEA MX rating (Zea mays [23]): 0
- ABU TH rating (Abutilon theophrasti [24]): 0

SMILES: C[C@H](NC(=O)c1nc(-c2c(F)cccc2F)ns1)c1ccccc1 [Example 59, (S)-3-(2,6-Difluorophenyl)-[1,2,4]thiadiazole-5-carboxylic acid, 1-(phenylethyl)amide]
- HOR VW rating (Hordeum vulgare [1]): 0
- TRZ AW rating (Triticum aestivum [3]): 0
- SET VI rating (Setaria viridis [4]): 3 (16-29%)
- HEL AN rating (Helianthus annuus [5]): 6 (65-79%)
- HOR VW rating (Hordeum vulgare [7]): 3 (16-29%)
- AMA RE rating (Amaranthus retroflexus [8]): 8 (91-99%)
- GAL AP rating (Galium aparine [9]): 6 (65-79%)
- TRZ AW rating (Triticum aestivum [10]): 3 (16-29%)
- CHE AL rating (Chenopodium album [11]): 7 (80-90%)
- VER PE rating (Veronica persica [12]): 8 (91-99%)
- SET VI rating (Setaria viridis [14]): 3 (16-29%)
- ZEA MX rating (Zea mays [15]): 0
- HEL AN rating (Helianthus annuus [17]): 0
- AMA RE rating (Amaranthus retroflexus [18]): 3 (16-29%)
- GAL AP rating (Galium aparine [19]): 3 (16-29%)
- CHE AL rating (Chenopodium album [20]): 0
- VER PE rating (Veronica persica [21]): 6 (65-79%)
- ZEA MX rating (Zea mays [23]): 0

SMILES: O=C(NCc1cccs1)c1nc(-c2c(F)cccc2F)ns1 [Example 60]
- HOR VW rating (Hordeum vulgare [1]): 0
- TRZ AW rating (Triticum aestivum [3]): 0
- SET VI rating (Setaria viridis [4]): 0
- HEL AN rating (Helianthus annuus [5]): 3 (16-29%)
- HOR VW rating (Hordeum vulgare [7]): 0
- AMA RE rating (Amaranthus retroflexus [8]): 5 (45-64%)
- GAL AP rating (Galium aparine [9]): 0
- TRZ AW rating (Triticum aestivum [10]): 0
- CHE AL rating (Chenopodium album [11]): 0
- VER PE rating (Veronica persica [12]): 0
- SET VI rating (Setaria viridis [14]): 0
- ZEA MX rating (Zea mays [15]): 3 (16-29%)
- HEL AN rating (Helianthus annuus [17]): 0
- AMA RE rating (Amaranthus retroflexus [18]): 0
- GAL AP rating (Galium aparine [19]): 0
- CHE AL rating (Chenopodium album [20]): 0
- VER PE rating (Veronica persica [21]): 0
- ZEA MX rating (Zea mays [23]): 0
